ChEMBL document CHEMBL1649168, “Susceptibility of human immunodeficiency virus type 1 to the maturation inhibitor bevirimat is modulated by baseline polymorphisms in Gag spacer peptide 1” (Antimicrob Agents Chemother, 2009)

How the values were obtained:
[1] = test system: Human immunodeficiency virus 1; assay: Antiviral activity against HIV1 PA109 harboring SP1 mutant gene relative to wild type; format: functional
[2] = test system: Human immunodeficiency virus 1; assay: Antiviral activity against HIV1 clinical isolates; format: functional, organism-based
[3] = test system: Human immunodeficiency virus 1; assay: Antiviral activity against HIV1 HXB2 harboring SP1 Q6H mutant gene relative to wild type; format: functional
[4] = test system: Human immunodeficiency virus 1; assay: Antiviral activity against HIV1 PA114 harboring SP1 mutant gene relative to wild type; format: functional
[5] = test system: Human immunodeficiency virus 1; assay: Antiviral activity against HIV1 PA115 harboring SP1 mutant gene relative to wild type; format: functional
[6] = test system: Human immunodeficiency virus 1; assay: Antiviral activity against HIV1 PA100 harboring SP1 mutant gene relative to wild type; format: functional
[7] = test system: Human immunodeficiency virus 1; assay: Antiviral activity against HIV1 HXB2 harboring SP1 mutant gene relative to wild type; format: functional
[8] = test system: Human immunodeficiency virus 1; assay: Antiviral activity against HIV1 HXB2 harboring SP1 Q6H /V7A/T8N mutant gene relative to wild type; format: functional
[9] = test system: Human immunodeficiency virus 1; assay: Antiviral activity against HIV1 PA101 harboring SP1 mutant gene relative to wild type; format: functional
[10] = test system: Human immunodeficiency virus 1; assay: Antiviral activity against HIV1 PA111 harboring SP1 mutant gene relative to wild type; format: functional
[11] = test system: Human immunodeficiency virus 1; assay: Antiviral activity against HIV1 PA106 harboring SP1 mutant gene relative to wild type; format: functional
[12] = test system: Human immunodeficiency virus 1; assay: Antiviral activity against HIV1 NL4.3 harboring SP1 Q6A mutant gene relative to wild type; format: functional
[13] = test system: Human immunodeficiency virus 1; assay: Antiviral activity against HIV1 PA110 harboring SP1 mutant gene relative to wild type; format: functional
[14] = test system: Human immunodeficiency virus 1; assay: Antiviral activity against HIV1 NL4.3 harboring SP1 Q6H mutant gene relative to wild type; format: functional
[15] = test system: Human immunodeficiency virus 1; assay: Antiviral activity against HIV1 HXB2 harboring SP1 V7A/T8delta mutant gene relative to wild type; format: functional
[16] = test system: Human immunodeficiency virus 1; assay: Antiviral activity against HIV1 NL4.3 harboring SP1 V7delta mutant gene relative to wild type; format: functional
[17] = test system: Human immunodeficiency virus 1; assay: Antiviral activity against HIV1 HXB2 harboring SP1 Q6H/T8N mutant gene relative to wild type; format: functional
[18] = test system: Human immunodeficiency virus 1; assay: Antiviral activity against HIV1 PA104 harboring SP1 mutant gene relative to wild type; format: functional
[19] = test system: Human immunodeficiency virus 1; assay: Antiviral activity against HIV1 NL4.3 harboring SP1 V7A mutant gene relative to wild type; format: functional
[20] = test system: Human immunodeficiency virus 1; assay: Antiviral activity against HIV1 NL4.3 harboring SP1 V7M mutant gene relative to wild type; format: functional
[21] = test system: Human immunodeficiency virus 1; assay: Antiviral activity against HIV1 PA105 harboring SP1 mutant gene relative to wild type; format: functional
[22] = test system: Human immunodeficiency virus 1; assay: Antiviral activity against HIV1 HXB2 harboring SP1 Q6H/T8delta mutant gene relative to wild type; format: functional
[23] = test system: Human immunodeficiency virus 1; assay: Antiviral activity against HIV1 HXB2 harboring SP1 V7M mutant gene relative to wild type; format: functional
[24] = test system: Human immunodeficiency virus 1; assay: Antiviral activity against HIV1 HXB2 harboring SP1 T8delta mutant gene relative to wild type; format: functional
[25] = test system: Human immunodeficiency virus 1; assay: Antiviral activity against HIV1 HXB2 harboring SP1 Q6H /V7A/T8delta mutant gene relative to wild type; format: functional
[26] = test system: Human immunodeficiency virus 1; assay: Antiviral activity against HIV1 NL4.3 harboring SP1 A1V mutant gene relative to wild type; format: functional
[27] = test system: Human immunodeficiency virus 1; assay: Antiviral activity against HIV1 PA108 harboring SP1 mutant gene relative to wild type; format: functional
[28] = test system: Human immunodeficiency virus 1; assay: Antiviral activity against HIV1 NL4.3 harboring SP1 T8A mutant gene relative to wild type; format: functional
[29] = test system: Human immunodeficiency virus 1; assay: Antiviral activity against HIV1 PA113 harboring SP1 mutant gene relative to wild type; format: functional
[30] = test system: Human immunodeficiency virus 1; assay: Antiviral activity against HIV1 NL4.3 harboring SP1 T8delta mutant gene relative to wild type; format: functional
[31] = test system: Human immunodeficiency virus 1; assay: Antiviral activity against HIV1 NL4.3 harboring SP1 L231M mutant gene relative to wild type; format: functional
[32] = test system: Human immunodeficiency virus 1; assay: Antiviral activity against HIV1 PA102 harboring SP1 mutant gene relative to wild type; format: functional
[33] = test system: Human immunodeficiency virus 1; assay: Antiviral activity against HIV1 HXB2 harboring SP1 T8N mutant gene relative to wild type; format: functional
[34] = test system: Human immunodeficiency virus 1; assay: Antiviral activity against HIV1 PA117 harboring SP1 mutant gene relative to wild type; format: functional
[35] = test system: Human immunodeficiency virus 1; assay: Antiviral activity against HIV1 HXB2 harboring SP1 V7A/T8N mutant gene relative to wild type; format: functional
[36] = test system: Human immunodeficiency virus 1; assay: Antiviral activity against HIV1 PA116 harboring SP1 mutant gene relative to wild type; format: functional
[37] = test system: Human immunodeficiency virus 1; assay: Antiviral activity against HIV1 PA118 harboring SP1 mutant gene relative to wild type; format: functional
[38] = test system: Human immunodeficiency virus 1; assay: Antiviral activity against HIV1 HXB2 harboring SP1 Q6H/V7A mutant gene relative to wild type; format: functional
[39] = test system: Human immunodeficiency virus 1; assay: Antiviral activity against HIV1 NL4.3 harboring SP1 mutant gene relative to wild type; format: functional
[40] = test system: Human immunodeficiency virus 1; assay: Antiviral activity against HIV1 PA112 harboring SP1 mutant gene relative to wild type; format: functional
[41] = test system: Human immunodeficiency virus 1; assay: Antiviral activity against HIV1 PA119 harboring SP1 mutant gene relative to wild type; format: functional
[42] = test system: Human immunodeficiency virus 1; assay: Antiviral activity against HIV1 PA107 harboring SP1 mutant gene relative to wild type; format: functional
[43] = test system: Human immunodeficiency virus 1; assay: Antiviral activity against HIV1 PA103 harboring SP1 mutant gene relative to wild type; format: functional
[44] = test system: Human immunodeficiency virus 1; assay: Antiviral activity against HIV1 HXB2 harboring SP1 V7A mutant gene relative to wild type; format: functional

SMILES: C=C(C)[C@@H]1CC[C@]2(C(=O)O)CC[C@]3(C)[C@H](CC[C@@H]4[C@@]5(C)CC[C@H](OC(=O)CC(C)(C)C(=O)O)C(C)(C)[C@@H]5CC[C@]43C)[C@@H]12 [BEVIRIMAT]
- fold change (FC) [1]: >125.4
- IC50 [2]: 10 nM
- fold change (FC) [3]: 2.3
- fold change (FC) [4]: >106.1
- fold change (FC) [5]: 0.9
- fold change (FC) [6]: >125.4
- fold change (FC) [7]: 1.7
- fold change (FC) [8]: >132.3
- fold change (FC) [9]: >76.1
- fold change (FC) [10]: >119.5
- fold change (FC) [11]: >119.5
- fold change (FC) [12]: 0.9
- fold change (FC) [13]: 1.5
- fold change (FC) [14]: 1.9
- fold change (FC) [15]: >130.6
- fold change (FC) [16]: 65.5
- fold change (FC) [17]: >122.5
- fold change (FC) [18]: 9.3
- fold change (FC) [19]: 45.8
- fold change (FC) [20]: 25.3
- fold change (FC) [21]: >125.4
- fold change (FC) [22]: >111
- fold change (FC) [23]: >113
- fold change (FC) [24]: 52.2
- fold change (FC) [25]: >144.3
- fold change (FC) [26]: >77.5
- fold change (FC) [27]: >116.6
- fold change (FC) [28]: 1.2
- fold change (FC) [29]: 2.3
- fold change (FC) [30]: 10.9
- fold change (FC) [31]: 37.6
- fold change (FC) [32]: 5.6
- fold change (FC) [33]: 52
- fold change (FC) [34]: 1.9
- fold change (FC) [35]: >157.2
- fold change (FC) [36]: 4.5
- fold change (FC) [37]: >113.7
- fold change (FC) [38]: >115.1
- fold change (FC) [39]: 1.1
- fold change (FC) [40]: 1.9
- fold change (FC) [41]: >106.4
- fold change (FC) [42]: 9.8
- fold change (FC) [43]: >83.2
- fold change (FC) [44]: >151.4
